Several values for one entry are separate records, joined by “and”; a condition that tells them apart may be missing. Equal entries are not always repeated. Where two headings read alike, the source gives them in different places.

This test deals with T1, hGLUT8 (Homo sapiens, UniProt Q9NY64, E7R/E8R).
T1 construct: expressed in transfected cells; host or cells: HEK293 (HEK293-FLIP, native hGLUT1 knocked down)
T1 sequence (Q9NY64 1-477 E7R/E8R): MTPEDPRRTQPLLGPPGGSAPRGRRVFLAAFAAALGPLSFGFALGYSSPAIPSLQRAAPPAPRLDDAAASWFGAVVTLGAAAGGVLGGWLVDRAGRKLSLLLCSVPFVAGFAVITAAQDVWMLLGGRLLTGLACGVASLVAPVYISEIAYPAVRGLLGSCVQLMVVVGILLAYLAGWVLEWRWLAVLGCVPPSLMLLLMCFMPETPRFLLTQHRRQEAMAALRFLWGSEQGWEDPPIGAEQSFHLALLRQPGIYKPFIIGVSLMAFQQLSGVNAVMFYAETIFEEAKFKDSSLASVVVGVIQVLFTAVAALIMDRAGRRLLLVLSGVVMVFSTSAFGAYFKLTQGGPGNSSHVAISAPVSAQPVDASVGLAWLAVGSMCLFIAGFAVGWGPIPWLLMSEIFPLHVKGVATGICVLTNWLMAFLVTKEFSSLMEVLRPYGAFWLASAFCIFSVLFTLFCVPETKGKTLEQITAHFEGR
Put plainly: 2-DG uptake by HEK293 cells overexpressing hGLUT8. It counts as cell-based. The text has this: Generation of HEK293 cells overexpressing PfHT and human GLUTs 1–4 were described elsewhere. Briefly, HEK293 cells were transfected with pcDNA3.1 FLII12Pglu-7006 (Addgene), containing the fluorescence resonance energy transfer (FRET) glucose sensor (HEK293-FLIP) and PfHT, human GLUT1 (hGLUT1), hGLUT2, hGLUT3, hGLUT4, hGLUT5 or hGLUT8 using Optifect (Life Technologies) according to manufacturer’s specifications. To increase retention of GLUT8 at the plasma membrane, the dileucine sorting signal E^7E^8XXXLL was modified to R^7R^8XXXLL as described in [17]. Stable transfectants were selected for G418 and hygromycin resistance to select for FRET sensor and hexose transporter, respectively. HEK293-FLIP cells were also used to generate cells stably transfected with FLAG-tagged PfHT (FTPfHT). FLAG tag ([…]) followed by a triple glycine linker and a tobacco etch virus (TEV) protease site (ENLYFQS) followed by a triple glycine linker was added to the N-terminus of PfHT via PCR [18] using Phusion Hot Start II High-Fidelity DNA Polymerase (Fisher Scientific). Single clones were selected by comparing their abilities to transport glucose as assayed via FRET and radiolabeled hexose uptake. In all cell lines, except for HEK293 cells overexpressing hGLUT1 and hGLUT5, native hGLUT1 was knocked down using shRNA as described elsewhere. Transcript levels of the individual GLUTs expressed in each cell line are as described in [13, 15] and in S1 Fig.
Glucose uptake by P. falciparum was performed essentially as described. P. falciparum strain 3D7 was cultured in 100 mm tissue culture dishes (Techno Plastic Products) in a 2% suspension of human erythrocytes and RPMI 1640 medium until reaching > 7.5% parasitemia. Cells were pelleted via centrifugation and resuspended in RPMI 1640 medium. To determine the uptake of radiolabeled glucose into the parasite, parasites were isolated from infected erythrocytes by permeablization with saponin (0.05 w/v), followed by centrifugation, aspiration of supernatant and washing of the pellet 3X with saline solution (135 mM NaCl, 2 mM KCl, 25 mM HEPES, 0.2 mM glucose and 1 mM MgCl2; pH 7.1) to remove cellular debris. WU-1 or DMSO vehicle were added to 100 μl parasites (resuspended in saline) 5 min prior to the addition of 100 μl [^14C]2-DOG (0.2- μCi/ml final concentration). 2-DG uptake was stopped after 2 min by layering the entire reaction over 300 μl of an oil mixture (5:4 mix of dibutyl phthalate / dinonyl phthalate) in Eppendorf tubes and centrifuged at 15,850 × g for 2 mins. The ratio of the estimated intracellular concentration of radiolabel relative to the extracellular concentration were calculated as described. Uptake of radiolabeled hexose into HEK293 cells was measured in glucose-free HBSS as described previously. Briefly, cells were plated at 400,000 cells/well overnight at 37°C in 24-well plates pre-treated with PEI. After 30-min incubation at 37°C in glucose-free HBSS in the presence of vehicle or increasing concentrations of compound, 2-DG uptake was measured in glucose-free HBSS for 4 min at 37°C. Cultures were washed in ice-cold 1X PBS and lysed in 0.1% Triton X-100 in 1X PBS. Radiolabeled hexose uptake was determined by liquid scintillation counting (Ultima Gold, Thermo Fisher) and normalized to total protein per well. Uptake data are plotted as percent uptake relative to vehicle-treated cells. Kinetic analyses were performed using the indicated concentrations of substrate and WU-1, with quenching of uptake after 1 min incubation. Incubation times had been previously determined as being in the linear range of time-dependent radiolabeled hexose uptake (2 min for 2-DG uptake into freed parasites; 2 and 4 min for D-Frc and 2-DG uptake HEK cell lines, respectively). Data were fit by least squares nonlinear regression analysis using GraphPad Prism 6.0 software.

In the case of `Cc1ccc(S(=O)(=O)CCNC(=O)c2c(-c3c(Cl)cccc3Cl)noc2C)cc1` [WU-1, 3-(2,6-dichlorophenyl)-5-methyl-N-[2-(4-methylbenzenesulfonyl)ethyl]-1,2-oxazole-4-carboxamide], the IC50 (GLUT8, 2-DG Uptake, average of Expt 1-3, read-out: AVE IC50) was 25 µM; the IC50 (GLUT8, 2-DG Uptake, single experiments Expt 1-3, read-out: IC50) was 39.8 µM and 19.9 µM and 15.3 µM; the IC50 (GLUT8 cell line, read-out: IC50, 2-DG uptake) was 25 ± 7.5 µM. The remaining activity at 0.001 µM (HEK293, 4 min, GLUT8, concentration 0.001 µM, Expt 1-3, read-out: 2-DG Uptake AVE) stood at 100%. The remaining activity at 0.3125 µM (HEK293, 4 min, GLUT8, concentration 0.3125 µM, read-out: 2-DG Uptake AVE) was determined as 104%. The remaining activity at 0.625 µM (HEK293, 4 min, GLUT8, concentration 0.6250 µM, read-out: 2-DG Uptake AVE) was 95.3%. Under “HEK293, 4 min, GLUT8, concentration 1.250 µM, read-out: 2-DG Uptake AVE”, the remaining activity at 1.25 µM was determined as 98.6%. The remaining activity at 2.5 µM (HEK293, 4 min, GLUT8, concentration 2.500 µM, read-out: 2-DG Uptake AVE) came to 97.5%. The remaining activity at 5 µM (HEK293, 4 min, GLUT8, concentration 5.0 µM, read-out: 2-DG Uptake AVE) worked out at 88%. The remaining activity at 20 µM (HEK293, 4 min, GLUT8, concentration 20 µM, read-out: 2-DG Uptake AVE) is 60.6%. The remaining activity at 80 µM (HEK293, 4 min, GLUT8, concentration 80 µM, read-out: 2-DG Uptake AVE) came out at 41.2%. The remaining activity at 160 µM (HEK293, 4 min, GLUT8, concentration 160 µM, read-out: 2-DG Uptake AVE) turned out to be 25.7%. Further, the remaining activity at 225 µM (HEK293, 4 min, GLUT8, concentration 225 µM, read-out: 2-DG Uptake AVE) is 23.9%. Further, the “Selectivity Index (PfHT over GLUT8), 2-DG” value (calculated from IC50s) was 4.3.

In general, IC50 refers to the concentration at which inhibition is half-maximal.

Source of the values: article PMC6508677, “Identification of druggable small molecule antagonists of the Plasmodium falciparum hexose transporter PfHT and assessment of ligand access to the glucose permeation pathway via FLAG-mediated protein engineering” (PLoS ONE, 2019).
